Source: US20210227854A1, “USE OF D-RIBOSE TO ENHANCE ADAPTATION TO PHYSICAL STRESS” (Bioenergy Life Science, Inc., priority 2014, published 2021)

Columns and labels:
Assay type in all cases: in vivo, human
[1] = Two-minute power test (time trial) on cycle ergometer after sixty-minute high-intensity exercise session, double-blind crossover study; details: for Absolute mean power output change / Relative mean power output change: Table 4, mean (±SD); for Mean Power (W/kg BW): difference between day 1 and day 3, 10 g/day, mean ± SD
Experimental: A high-intensity exercise protocol was designed as a double-blind, crossover study to assess the influence of D-Ribose adaptation to physical stress. Specifically, D-Ribose and a control (Dextrose) were administered on separate subjects at a dosage of ten grams per day (10 g/day). A variety of physiological parameters were measured in the subjects administered D-Ribose (DR) supplementation (i.e., the DR subjects) versus the subjects administered Dextrose (DEX) supplementation (i.e., the DEX subjects).
The subjects consisted of twenty-six (26) healthy individual (10 females, 16 males). Each subject was randomly categorized as a DR subject or a DEX subject for the administration of supplementation. Furthermore, each subject was required to maintain his or her normal diet during the study, as well as performing his or her normal daily activities without performing any additional separate exercise sessions not part of the study protocol.
To test D-ribose for adaptation, the twenty-six (26) adult subjects were further divided into two subgroups based on their fitness level (i.e., peak oxygen uptake (VO2 max) results. The first subgroup comprised subjects with higher VO2 max results (i.e., the “Fit Subgroup”) and the second subgroup comprised subjects with lower VO2 max results (i.e., the “Unfit Subgroup”). The Unfit Subgroup consisted of six (6) females and seven (7) males. The average age of the Unfit Subgroup was 27.7±3.4 years and the average peak VO2 of the Unfit Subgroup was 39.9±4.1 mL/kg/min. The Fit Subgroup consisted of four (4) females and nine (9) males. The average age of the Fit Subgroup was 27.6±3.5 year and the average peak VO2 of the Fit Subgroup was 52.2±4.3 mL/kg/min.
On the load days (i.e., the two (2) days prior to the exercise sessions), DR subjects consumed five grams (5 g) of DR mixed with either their food or in a self-selected beverage with lunch and an additional five grams (5 g) with dinner (i.e., between three to eight hours apart), while DEX subjects consumed five grams (5 g) of DEX mixed with either their food or in a self-selected beverage with lunch and an additional five grams (5 g) with dinner (i.e., between three to eight hours apart).
On the exercise session days (i.e., three (3) days following the load days), DR subjects ingested a standardized pre-exercise snack containing five grams (5 g) of DR at two (2) hours before the exercise session and five grams (5 g) of DR following the exercise session but before leaving the laboratory (i.e., within one hour following the exercise session), while DEX subjects ingested a standardized pre-exercise snack containing five grams (5 g) of DEX at two (2) hours before the exercise session and five grams (5 g) of DEX following the exercise session but before leaving the laboratory (i.e., within one hour following the exercise session). For both DR subjects and DEX subjects, the standardized snacks were self-selected but were based on the subjects' normal dietary habits. The snacks were consistent from day to day and consisted of one hundred seventy grams (170 g) of yogurt and two granola bars, along with the designated supplement. Subjects were asked to record their diets so that there would be consistency throughout the testing period. Following an exercise session, each subject ingested the final daily dose of five grams (5 g) before leaving the laboratory. Subjects also ingested two hundred milliliters (200 ml) of water at twenty (20) and forty (40) minutes of exercise to minimize the effects of dehydration, which can occur during periods of high-intensity exercise.
Each subject was randomly assigned to be a DR subject (for administration of DR supplementation) or a DEX subject (for administration of DEX supplementation). Apart from the supplementation provided to and consumed by the subject, the treatment protocols were identical. The specific treatment protocol (i.e., administration of supplementation and exercise sessions) is detailed in Table 1 below: […]

[2] = Blood urea nitrogen (BUN) around three days of high-intensity exercise; details: for Change in BUN levels: Unfit Subgroup, p=0.88
Experimental: A high-intensity exercise protocol was designed as a double-blind, crossover study to assess the influence of D-Ribose adaptation to physical stress. Specifically, D-Ribose and a control (Dextrose) were administered on separate subjects at a dosage of ten grams per day (10 g/day). A variety of physiological parameters were measured in the subjects administered D-Ribose (DR) supplementation (i.e., the DR subjects) versus the subjects administered Dextrose (DEX) supplementation (i.e., the DEX subjects). To test D-ribose for adaptation, the twenty-six (26) adult subjects were further divided into two subgroups based on their fitness level (i.e., peak oxygen uptake (VO2 max) results. The first subgroup comprised subjects with higher VO2 max results (i.e., the “Fit Subgroup”) and the second subgroup comprised subjects with lower VO2 max results (i.e., the “Unfit Subgroup”). The Unfit Subgroup consisted of six (6) females and seven (7) males. The average age of the Unfit Subgroup was 27.7±3.4 years and the average peak VO2 of the Unfit Subgroup was 39.9±4.1 mL/kg/min. The Fit Subgroup consisted of four (4) females and nine (9) males. The average age of the Fit Subgroup was 27.6±3.5 year and the average peak VO2 of the Fit Subgroup was 52.2±4.3 mL/kg/min. […] Physiologic parameters were measured and hydration was provided to the subjects during the exercise session. […] Blood glucose was measured at all of the above time points except at twenty-four (24) hours post-exercise. Creatine kinase and BUN levels were measured at the pre-exercise (−10 min.) point during the three (3) days of exercise and twenty-four (24) hours post-exercise following the third (last) exercise session. Heart rate was recorded using a Polar HR monitor. Blood glucose levels were measured using a Bayer glucose monitor. Blood lactate levels were measured by an AccuSport Lactate Analyzer. Creatine kinase and BUN were measured utilizing an Abaxis Piccolo analyzer. Power data from the time trial performance test was assessed with the Sports Medicine Industries (SMI) software package.

[3] = Serum creatine kinase (CK) around three days of high-intensity exercise; details: for CK (u): Day 1 to Day 3, 10 g/day, mean ± SD; for Creatine kinase levels, average increase: text b38, p=0.03
Experimental: A high-intensity exercise protocol was designed as a double-blind, crossover study to assess the influence of D-Ribose adaptation to physical stress. Specifically, D-Ribose and a control (Dextrose) were administered on separate subjects at a dosage of ten grams per day (10 g/day). A variety of physiological parameters were measured in the subjects administered D-Ribose (DR) supplementation (i.e., the DR subjects) versus the subjects administered Dextrose (DEX) supplementation (i.e., the DEX subjects). To test D-ribose for adaptation, the twenty-six (26) adult subjects were further divided into two subgroups based on their fitness level (i.e., peak oxygen uptake (VO2 max) results. The first subgroup comprised subjects with higher VO2 max results (i.e., the “Fit Subgroup”) and the second subgroup comprised subjects with lower VO2 max results (i.e., the “Unfit Subgroup”). The Unfit Subgroup consisted of six (6) females and seven (7) males. The average age of the Unfit Subgroup was 27.7±3.4 years and the average peak VO2 of the Unfit Subgroup was 39.9±4.1 mL/kg/min. The Fit Subgroup consisted of four (4) females and nine (9) males. The average age of the Fit Subgroup was 27.6±3.5 year and the average peak VO2 of the Fit Subgroup was 52.2±4.3 mL/kg/min. The protocol of the double-blind crossover study involved an initial baseline assessment, followed by two separate day assessments after consuming either a DR or DEX supplement. Each exercise session entailed measurements of creatine kinase (CK), blood urea nitrogen (BUN), glucose, heart rate (HR), rate of perceived exertion (RPE), and power output (PO) measurements. Physiologic parameters were measured and hydration was provided to the subjects during the exercise session. The same protocol for testing and hydration protocol was followed for both DR subjects and DEX subjects. Blood samples were drawn from each subject via a venipuncture technique at the following time periods: • Ten (10) minutes before commencement of exercise; • Twenty (20) minutes after the commencement of and during exercise; • Forty (40) minutes after the commencement of and during exercise; • Sixty (60) minutes after the commencement of and during exercise; and • Twenty-four (24) hours after the conclusion of exercise (twenty-five (25) hours after the commencement of exercise). Blood glucose was measured at all of the above time points except at twenty-four (24) hours post-exercise. Creatine kinase and BUN levels were measured at the pre-exercise (−10 min.) point during the three (3) days of exercise and twenty-four (24) hours post-exercise following the third (last) exercise session. Heart rate was recorded using a Polar HR monitor. Blood glucose levels were measured using a Bayer glucose monitor. Blood lactate levels were measured by an AccuSport Lactate Analyzer. Creatine kinase and BUN were measured utilizing an Abaxis Piccolo analyzer. Power data from the time trial performance test was assessed with the Sports Medicine Industries (SMI) software package.

Compound	Average change in absolute peak power from Day 1 to Day 3 ([1]; Fit Subgroup) [W]	Average change in relative peak power from Day 1 to Day 3 ([1]; Fit Subgroup)	Absolute mean power output change ([1]; Fit Subgroup)	Relative mean power output change ([1]; Fit Subgroup)	Mean Power (W/kg BW) ([1]; Fit Subgroup)	Average change in absolute peak power from Day 1 to Day 3 ([1]; Unfit Subgroup) [W]	Average change in relative peak power from Day 1 to Day 3 ([1]; Unfit Subgroup)	Absolute mean power output change ([1]; Unfit Subgroup)	Relative mean power output change ([1]; Unfit Subgroup)	Mean Power (W/kg BW) ([1]; Unfit Subgroup)	Change in BUN levels [2]	CK (u) ([3]; Fit Subgroup)	CK (u) ([3]; Unfit Subgroup)	Creatine kinase levels, average increase ([3]; Unfit Subgroup) [U]	Relative and absolute mean power outputs, DR versus DEX treatments ([1]; Fit Subgroup)	Difference between DR and DEX in the change of absolute mean power ([1]; Unfit Subgroup, p=0.01) [%]	Improvement in relative mean power over DEX ([1]; Unfit Subgroup, p=0.04) [%]	Change in BUN levels, DR versus DEX ([2]; Fit Subgroup)	Change in CK levels, DR versus DEX ([3]; Fit Subgroup)
O=C[C@H](O)[C@@H](O)[C@H](O)[C@H](O)CO [DEX, Dextrose, reference compound]	3.31±25.8	−0.02+0.37 W/kg BW	8.2 (27.7) W	0.07 (0.33) W/kg BW	0.07 ± 0.33	−10.8±33.0	−0.09+0.51 W/kg BW	−8.9 (22.4) W	−0.09 (0.29) W/kg BW	−0.09 ± 0.31	1.08±2.56	12.1 ± 270	124.5 ± 126.5	121.4±110.2					
O=C[C@H](O)[C@H](O)[C@H](O)CO [DR, D-Ribose]	6.2±28.6	0.15±0.41 W/kg BW	2.3 (17.1) W	0.08 (0.39) W/kg BW	0.08 ± 0.31	26.8±40.8	0.33+0.52 W/kg BW	13.2 (24.2) W	0.17 (0.32) W/kg BW	0.20 ± 0.32	0.93±2.66	40.0 ± 348.1	10.3 ± 79.3	37.1±85.2	not different	245	288	No differences	No differences
